According to US7816558B2, “Triarylcarboxylic acid derivative” (Astellas Pharma Inc., priority 2005, dated 2010):

Target: T1, xanthine oxidase (derived from butter milk, by Sigma) (Bos taurus, UniProt P80457)
T1 construct: xanthine oxidase (derived from butter milk, by Sigma); purchased Sigma; host or cells: butter milk (natural source)
Assay: Xanthine oxidase inhibiting activity
Assay type: biochemical
Conditions: pterin 5 μM as substrate, isoxanthopterin light emission, room temperature; read-out: IC50 (concentration of the test compound for 50% inhibition)
Experimental: A test compound was dissolved in DMSO (by Nacalai) to have a concentration of 10 mM, and then just before use, its concentration was adjusted to a desired one.
The xanthine oxidase inhibitory activity of the compound of the present invention was evaluated according to a partly modified method of a method described in a reference “Free Radic. Biol. Med. 6, 607-615, 1992”. Concretely, xanthine oxidase (derived from butter milk, by Sigma) was mixed with 50 mM phosphate buffer to be 0.03 units/ml, and applied to a 96-well plate in an amount of […]. The test compound diluted to have a final concentration was added to the plate in an amount of 2 μl/well, and processed at room temperature for 20 minutes. Pterin (by Sigma) was added to it to have a final concentration of 5 μM in an amount of 50 μl/well, and reacted at room temperature for 10 minutes. Under a condition of excitation at 345 nm and emission at […] (pterin is oxidized by xanthine oxidase to give isoxanthopterin, and under the condition it emits light), the sample was analyzed using a microplate reader sapphire (by Tacan).
The light emission by isoxanthopterin in the presence or absence of xanthine oxidase was defined as 0% inhibition and 100% inhibition, respectively, and the concentration (IC50) of the test compound for 50% inhibition was computed.

T1 sequence (P80457 whole entry): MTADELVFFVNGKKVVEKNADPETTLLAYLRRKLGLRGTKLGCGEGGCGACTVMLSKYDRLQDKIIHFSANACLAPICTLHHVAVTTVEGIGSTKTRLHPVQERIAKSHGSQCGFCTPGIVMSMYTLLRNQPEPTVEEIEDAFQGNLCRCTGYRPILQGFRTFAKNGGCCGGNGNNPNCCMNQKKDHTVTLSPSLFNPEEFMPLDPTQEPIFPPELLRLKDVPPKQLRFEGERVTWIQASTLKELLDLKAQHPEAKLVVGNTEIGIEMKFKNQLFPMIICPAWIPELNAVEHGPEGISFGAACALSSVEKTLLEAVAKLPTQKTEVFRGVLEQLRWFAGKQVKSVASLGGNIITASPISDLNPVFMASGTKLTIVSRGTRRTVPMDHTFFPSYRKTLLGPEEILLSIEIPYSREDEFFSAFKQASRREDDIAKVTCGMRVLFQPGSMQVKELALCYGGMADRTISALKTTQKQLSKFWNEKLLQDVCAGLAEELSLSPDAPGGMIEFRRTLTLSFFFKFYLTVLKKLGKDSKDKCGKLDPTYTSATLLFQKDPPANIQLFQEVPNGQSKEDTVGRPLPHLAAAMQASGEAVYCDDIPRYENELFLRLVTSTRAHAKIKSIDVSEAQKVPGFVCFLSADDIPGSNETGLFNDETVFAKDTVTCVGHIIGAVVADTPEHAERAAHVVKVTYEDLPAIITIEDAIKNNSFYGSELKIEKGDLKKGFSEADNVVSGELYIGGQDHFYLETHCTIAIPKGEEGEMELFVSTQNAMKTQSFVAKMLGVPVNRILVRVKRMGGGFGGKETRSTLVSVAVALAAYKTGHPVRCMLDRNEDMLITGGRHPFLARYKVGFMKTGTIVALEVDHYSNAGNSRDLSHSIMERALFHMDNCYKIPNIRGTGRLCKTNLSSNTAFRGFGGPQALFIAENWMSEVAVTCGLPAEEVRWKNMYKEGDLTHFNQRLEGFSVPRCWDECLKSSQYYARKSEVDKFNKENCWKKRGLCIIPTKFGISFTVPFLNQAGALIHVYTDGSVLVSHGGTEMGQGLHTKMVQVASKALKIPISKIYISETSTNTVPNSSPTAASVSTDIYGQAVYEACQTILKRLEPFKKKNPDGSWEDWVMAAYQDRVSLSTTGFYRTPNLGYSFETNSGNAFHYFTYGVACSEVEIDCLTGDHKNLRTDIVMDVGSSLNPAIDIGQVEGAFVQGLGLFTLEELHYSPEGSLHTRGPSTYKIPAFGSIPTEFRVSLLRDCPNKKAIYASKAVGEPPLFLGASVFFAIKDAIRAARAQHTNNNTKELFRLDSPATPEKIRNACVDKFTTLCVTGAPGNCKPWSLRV

IC50	SMILES
0.5 nM	CC(C)(C)c1ccc(-c2ccc(-c3ccc(C(=O)O)s3)cc2C#N)cc1 [Example 94]
0.9 nM	Cc1cccc(-c2ccc(-c3nc(C)c(C(=O)O)s3)cc2C#N)c1 [Example 129, 2-(2-cyano-3′-methylbiphenyl-4-yl)-4-methyl-1,3-thiazole-5-carboxylic acid]
1.4 nM	COc1ccc(-c2ccc(-n3cc(C(=O)O)cn3)cc2C#N)cc1 [Example 140, 1-(2-cyano-4′-methoxybiphenyl-4-yl)-1H-pyrazole-4-carboxylic acid]

System: serum uric acid level
Assay: Hypouricemic effect (rat oxonate-induced high uric acid model), test (A)
Assay type: in vivo
Conditions: Wistar rats, potassium oxonate 250 mg/kg s.c., 2 hours after oral administration, normal group 100% inhibition, control group 0%
Experimental: (A) For evaluating the serum uric acid level depressing capability of the compounds of the present invention, the following test was carried out using an oxonate-induced high uric acid model.
A 0.5% methyl cellulose liquid (normal group, control group) or a test compound suspended in 0.5% methyl cellulose (compound-administered group) was orally administered to 5 or 6-week-age male Wistar rats. One hour before blood collection, saline (normal group), or 250 mg/kg of potassium oxonate suspended in saline (control group, compound-administered group) was subcutaneously administered to the rats. 2 hours or 18 hours after the compound or methyl cellulose liquid administration, the blood was collected from each rat. The serum was separated from the collected blood, and the serum uric acid level was measured according to a phosphorus tungstate method (Am. J. Clin. Pathol., 28, 152-, 1957).
This test confirmed the excellent hypouricemic effect of the compounds of the present invention. For example, ED50 of the compound of Example 136 was 0.2 mg/kg in 2 hours after oral administration (for this, the serum uric acid level of the normal group was defined as 100% inhibition and the serum uric acid level of the control group was as 0% inhibition).

SMILES	ED50
N#Cc1cc(-c2cc(C(=O)[O-])ccn2)ccc1-c1ccccc1.[Na+] [Example 1, sodium 2-(2-cyanobiphenyl-4-yl)isonicotinate]	< 1 mg/kg
N#Cc1cc(-c2ccc(C(=O)O)s2)ccc1-c1ccccc1 [Example 68, 5-(2-cyanobiphenyl-4-yl)thiophene-2-carboxylic acid]	< 1 mg/kg
Cc1nc(-c2ccc(-c3ccccc3)c(C#N)c2)sc1C(=O)O [Example 123, 2-(2-cyanobiphenyl-4-yl)-4-methyl-1,3-thiazole-5-carboxylic acid]	< 1 mg/kg
Cc1ccc(-c2ccc(-c3nc(C)c(C(=O)O)s3)cc2C#N)cc1 [Example 124, 2-(2-cyano-4′-methylbiphenyl-4-yl)-4-methyl-1,3-thiazole-5-carboxylic acid]	< 1 mg/kg
COc1ccc(-c2ccc(-c3nc(C)c(C(=O)O)s3)cc2C#N)cc1 [Example 127, 2-(2-cyano-4′-methoxybiphenyl-4-yl)-4-methyl-1,3-thiazole-5-carboxylic acid]	< 1 mg/kg
N#Cc1cc(-c2ncc(C(=O)O)s2)ccc1-c1ccccc1 [Example 136, 2-(2-cyanobiphenyl-4-yl)-1,3-thiazole-5-carboxylic acid]	0.2 mg/kg
N#Cc1cc(-n2cc(C(=O)O)cn2)ccc1-c1ccccc1 [Example 137, 1-(2-cyanobiphenyl-4-yl)-1H-pyrazole-4-carboxylic acid]	< 1 mg/kg
COc1ccc(-c2ccc(-n3cc(C(=O)O)cn3)cc2C#N)cc1 [Example 140, 1-(2-cyano-4′-methoxybiphenyl-4-yl)-1H-pyrazole-4-carboxylic acid]	< 1 mg/kg
Cn1nc(-c2ccc(-c3ccccc3)c(C#N)c2)cc1C(=O)O [Example 146, 3-(2-cyanobiphenyl-4-yl)-1-methyl-1H-pyrazole-5-carboxylic acid]	< 1 mg/kg
